Measured values taken from patent US20170035824A1, “USAGE OF OBLONGIFOLIN C, A NATURAL COMPOUND FROM GARCINIA YUNNANENSIS HU, ON TREATING CANCER AS METASTASIS INHIBITOR AND AUTOPHAGIC FLUX INHIBITOR” (Hong Kong Baptist University, priority 2013, published 2017).
Structures can show the parent of a compound that is named as a salt.

Legend:
HeLa cells xenograft = test: Anti-cancer activity in vivo, cervical cancer xenograft; set-up: species or system BALB/c nude mice; conditions: for tumor size versus vehicle treated mice: HeLa xenograft, intratumoral once every 2 days, seven injections, OC 12 μg, Etopside 4 μg
Experimental: Four weeks old nude mice were engrafted with HeLa cells and observed until tumors reached ˜100 mm^3. Tumor-bearing mice were then treated vehicle, OC (12 μg) or Etopside (4 μg) […] by intratumoral once every 2 days for a total of seven injections. Mice were killed and tumors resected and weighed 2 days after the final injection.
Four-week-old BALB/c nude mice were purchased from the Experimental Animal
Center of Chinese Academy of Science (Shanghai, China) and kept in pathogen free environment at Experimental Animal Center in Shanghai University of Traditional Chinese Medicine. The mice have an average weight of 20 g. Approximately 2×10^6 HeLa cells were injected into the left and right sides of the animals. Two weeks later, 15 mice bearing tumors around 100 mm^3 in volume were randomly divided into vehicle control, etoposide (positive control) and oblongifolin C-treated groups. The mice were administered via intratumoral injection at the dose of 4 μg etopside or 12 μg OC in 200 μl solvent (0.05% DMSO, 0.05% Tween-80 in PBS) once every two days for two weeks. The tumor size was measured over a period of two weeks.

[1] = literature background; cited from earlier work
[2] = tested on: HeLa cells stably expressing GFP-LC3; test: Live cell imaging and colocalization analysis (GFP-LC3 / LysoTracker Red); format: cell-based; conditions: OC 15 μM or HCQ 50 μM, 8 hours, FIG. 11
Experimental: Live cell images of GFP-LC3 and LysoTracker Red were taken using Olympus confocal microscope. The enlarged images show the colocalization of two signals.
(§1) For lysotracker staining, HeLa or MEF cells grown on coverslips were stained with 50 nM Lysotracker Red DND-99 (Molecular Probes, Invitrogen, L7528) in pre-warmed medium for 20 min at 37° C. All of the samples were examined under an Olympus FV1000 confocal microscope (Olympus) equipped with a 63×oil immersion objective. The confocal images were acquired using FV10-ASW 2.0 software. Calculation of Pearson's correlation coefficient (PCC) was applied to quantify colocalization. PCC was calculated by FV10-ASW 2.0 software between the stack of images from two channels.

CNE cells = test: Flow cytometry (propidium iodide), complete vs nutrient-deprived medium; format: cell-based, human; conditions: OC 5 μM, EBSS vs DMEM, 24 hours, FIG. 13
Experimental: (§2) The cells were fixed and stained with propidium iodide (PI).
(§3) HeLa, HCT116, CNE, MCF7, MDA-MB-231, HepG2 and MEFs were maintained in Dulbecco's modified Eagle's medium (Gibco/Invitrogen, 12800-017) supplemented with 10% fetal bovine serum 100U/m1 penicillin-streptomycin (Gibco/ Invitrogen, 15140-122) at 37° C. in a humidified 5% CO2 incubator. For nutrient starvation, HeLa or CNE cells cultured in DMEM were washed three times with PBS, then cultured in Earle's Balanced Salt Solution (EBSS, Sigma, E6132) for indicated time point.
(§4) Cells were treated with Oblongifolin C then cultured in complete (DMEM with serum) or nutrient deprived medium (EBSS) for 24 hours. The cells were fixed in 70% ethanol in PBS overnight. For cell cycle distribution, cells were counterstained with propidium iodide and analyzed for DNA content by use of a BD Influx™ flow cytometer.

[3] = tested on: human colorectal cancer cell lines; conditions: previous studies (Feng et al. 2012; Huang et al. 2009); cited from earlier work
MEF = test: Live cell imaging and colocalization analysis (GFP-LC3 / LysoTracker Red); format: cell-based, mouse; conditions: OC 15 μM, 8 hours, FIG. 12
Experimental: The colocalization of GFP-LC3 and LysoTracker Red were analyzed by confocal microscopy. The enlarged images show the colocalization of two signals.
as §1

HeLa-LC3-GFP cells = test: GFP-LC3 translocation and quantitative analyses; format: cell-based; conditions: OC 5, 10 and 20 μM, 24 hours, FIG. 5 and 6
Excerpt: MEF, HeLa, CNE, HCT116, MCF7 and HepG2 cells were transfected with pEGFP-LC3 plasmid using lipofectamine 2000 (Invitrogen, 11668-019). […] Image acquisition was done using an Olympus FV1000 confocal microscope. The number of GFP-LC3 dots was counted from at least 150 cells from randomly placed positions within each sample.

ECA109 cells [4] = test: Transwell assay (cell migration); format: cell-based, human; conditions: ECA109, 24 hours, FIG. 3
Experimental: (§5) Human esophageal cancer cell line ECA109 were maintained in RPMI1640 (Gibco/Invitrogen) supplemented with 10% fetal bovine serum (Invitrogen), 100 U/ml penicillin-streptomycin (Gibco/ Invitrogen, 15140-122), within a humidified atmosphere containing 5% CO2 at 37° C.
Cell migration was also determined using a transwell (Corning) with pore size of 8 μm. 5×10^4 cells that were seeded in serum-free medium in the upper chamber, while medium containing 10% FBS in the lower chamber. After incubating for 24 hours at 37° C., cells in the upper chamber were carefully removed with a cotton swab and the cells that had traversed to reverse face of the membrane were fixed in methanol, stained with Giemsa, and counted.

ECA109 cells [5] = test: Anti-invasion assay (Matrigel assay); format: cell-based, human; conditions: ECA109, 72 hr, FIG. 4
Experimental: as §5
Cell invasion was determined using Matrigel (BD) coated transwell (Corning) with pore size of 8 μm. 5×10^4 cells that were seeded in serum-free medium in the upper chamber, while medium containing 10% FBS in the lower chamber. After incubating for 72 hr at 37° C., cells in the upper chamber were carefully removed with a cotton swab and the cells that had traversed to reverse face of the membrane were fixed in methanol, stained with Giemsa, and counted.

HeLa cells [6] = test: Western blot for endogenous LC3 / SQSTM1; format: cell-based
Experimental: (§6) GAPDH was used as a loading control. An image J densitometric analysis of the LC3-II/GAPDH ratio from LC3 immunoblots was shown.
(§7) Samples were analyzed by western blotting for endogenous SQSTM1 and GAPDH. An image J densitometric analysis of the SQSTM1/GAPDH ratio from immunoblots was shown.
(§8) Cells were lysed in ice-cold whole cell extract buffer (50 mM pH8.0 Tris-HCl, 4M urea and 1% TritonX-100), supplemented with complete protease inhibitor mixture (Roche Diagnostics, 04693132001). Cell extracts were resolved by SDS-PAGE gel electrophoresis and transferred to a nitrocellulose membrane. After blocking with 5% non-fat milk in Tris-buffered saline containing 0.2% Tween-20, the membranes were probed with the following antibodies: LC3B (sigma, L7543), SQSTM1/p62 (MBL, PM045), GAPDH (Proteintech, 10494-1-AP), CASP3 (Cell signaling, #9962). Following incubation with horseradish peroxidase coupled secondary anti-mouse (KPL, 074-1806) or anti-rabbit antibodies (KPL, 474-1506), protein bands were visualized using ECL Blotting Detection Reagents (KPL, 54-61-00).

HeLa cells [7] = test: Flow cytometry (propidium iodide), complete vs nutrient-deprived medium; format: cell-based; conditions: OC 5 μM, EBSS vs DMEM, 24 hours, FIG. 13
Experimental: as §2, §3, §4

HeLa cells [8] = test: Western blot for cleaved Caspase 3 in DMEM or EBSS medium; format: cell-based; conditions: DMEM and EBSS, 24 hours, FIG. 14
Experimental: Samples were analyzed by western blotting for cleaved Caspase 3, LC3 and SQSTM1. GAPDH was used as a loading control.
as §8, §4

ECA109 cells [9] = test: Wound healing assay; format: cell-based, human; conditions: ECA109, 24 hours, FIG. 2
Experimental: as §5
ECA109 cells were seeded on 12-well plates at a density of 1×10^5 cells/well. After the cells reached sub-confluence, the mono-layer cells were wounded by scraping off the cells and then grown in medium for 24 hours. The migrated distance of cells was monitored and imaged under a microscope.

[10] = tested on: human breast cancer cells (MCF7); test: GFP-LC3 translocation; format: cell-based; conditions: MCF7, 10 μM, 24 hours, FIG. 7
Experimental: (§9) MEF, HeLa, CNE, HCT116, MCF7 and HepG2 cells were transfected with pEGFP-LC3 plasmid using lipofectamine 2000 (Invitrogen, 11668-019). One day after transfection, cells were treated with 10 μM Oblongifolin C for 24 hours prior to fixation. Image acquisition was done using an Olympus FV1000 confocal microscope. The number of GFP-LC3 dots was counted from at least 150 cells from randomly placed positions within each sample.

[11] = tested on: human colon cancer cells (HCT116); test: GFP-LC3 translocation; format: cell-based; conditions: HCT116, 10 μM, 24 hours, FIG. 7
Experimental: as §9

[12] = tested on: human hepatocytes (HepG2); test: GFP-LC3 translocation; format: cell-based; conditions: HepG2, 10 μM, 24 hours, FIG. 7
Experimental: as §9

[13] = tested on: mouse embryonic fibroblast cells (MEF); test: GFP-LC3 translocation; format: cell-based; conditions: 10 μM, 24 hours, FIG. 7
Experimental: as §9

[14] = tested on: human nasopharyngeal cancer cells (CNE); test: GFP-LC3 translocation; format: cell-based; conditions: 10 μM, 24 hours, FIG. 7
Experimental: as §9

MEF cells = test: Western blot for endogenous LC3 / SQSTM1; format: cell-based, mouse
Experimental: as §6, §7, §8

[15] = tested on: lysosomal proteolytic activity; test: Lysosomal proteolytic activity / autophagic flux; format: cell-based

COc1cc([C@@H]2c3cc4c(cc3[C@@H](O[C@@H]3O[C@@H]5CO[C@@H](C)O[C@H]5[C@H](O)[C@H]3O)[C@H]3COC(=O)[C@H]23)OCO4)cc(OC)c1O [Etop, etoposide, reference compound]
tumor size versus vehicle treated mice (HeLa cells xenograft): smaller than those of vehicle treated mice

CC(C)=CCC[C@]1(C)C=Cc2c(O)c3c(c(CC=C(C)C)c2O1)O[C@]12C(=C[C@@H]4C[C@H]1C(C)(C)O[C@@]2(C/C=C(/C)C(=O)O)C4=O)C3=O [GA, gambogic acid]
toxicity [1]: induces toxicity to the liver and kidney

CCN(CCO)CCCC(C)Nc1ccnc2cc(Cl)ccc12 (centres unmarked) [HCQ, hydroxychloroquine sulfate, reference compound]
autophagosome-lysosome fusion (colocalization of GFP-LC3 and LysoTracker Red) [2]: block autophagosome-lysosome fusion

CC(C)=CCC/C(C)=C/C[C@@H]1C[C@]2(CC=C(C)C)C(=O)[C@@](CC=C(C)C)(C(=O)C(C(=O)c3ccc(O)c(O)c3)=C2O)[C@@]1(C)CCC=C(C)C [Oblongifolin C]
apoptosis of nutrient-deprived cancer cells (CNE cells): sensitizes nutrient-deprived cancer cells to apoptosis
relative potency among PPAP compounds [3]: most potent PPAP compound
autophagosome-lysosome fusion (colocalization of GFP-LC3 and LysoTracker Red) (MEF): block autophagosome-lysosome fusion
GFP-LC3 puncta formation (HeLa-LC3-GFP cells): could regulate GFP-LC3 puncta formation at concentration dependent manner
cell migration through transwell (ECA109 cells [4]): suppress ECA109 cells migration through transwell at concentration dependent manner
cell invasion through matrigel (ECA109 cells [5]): suppress ECA109 cells invasion through matrigel at a concentration dependent manner
amount of LC3-II protein (FIG. 10; autophagic flux) (HeLa cells [6]; OC 15 μM over a time period, FIG. 10): increase the amount of LC3-II protein in a time-dependent manner
amount of LC3-II protein (time dependence) (HeLa cells [6]; OC 15 μM, 0, 4, 8, 12 and 24 hours, FIG. 9): increase the amount of LC3-II protein in a time-dependent manner
amount of LC3-II protein (dose dependence) (HeLa cells [6]; OC 2, 5, 10 and 25 μM, 24 hours, FIG. 8): increase the amount of LC3-II protein in a dose-dependent manner
apoptosis of nutrient-deprived cancer cells (HeLa cells [7]): sensitizes nutrient-deprived cancer cells to apoptosis
Caspase 3 cleavage (HeLa cells [8]): resulted in Caspase 3 and cleavage in concentration-dependent manner
wound healing (migrated distance of cells) (ECA109 cells [9]): suppressed the wound healing in a concentration dependent manner
GFP-LC3 puncta formation [10]: could regulate GFP-LC3 puncta formation
GFP-LC3 puncta formation [11]: could regulate GFP-LC3 puncta formation
GFP-LC3 puncta formation [12]: could regulate GFP-LC3 puncta formation
GFP-LC3 puncta formation [13]: could regulate GFP-LC3 puncta formation
GFP-LC3 puncta formation [14]: could regulate GFP-LC3 puncta formation
amount of LC3-II protein (time dependence) (MEF cells; MEF, OC 15 μM, 0, 4, 8, 12 and 24 hours, FIG. 9): increase the amount of LC3-II protein in a time-dependent manner
amount of LC3-II protein (dose dependence) (MEF cells; MEF, OC 2, 5, 10 and 25 μM, 24 hours, FIG. 8): increase the amount of LC3-II protein in a dose-dependent manner
amount of LC3-II protein (FIG. 10; autophagic flux) (MEF cells; MEFs, OC 15 μM over a time period, FIG. 10): increase the amount of LC3-II protein in a time-dependent manner
anticancer effect in cervical cancer xenograft (HeLa cells xenograft; 12 μg OC intratumoral once every two days for two weeks, FIG. 15): anticancer effect similar to etopside
tumor size versus vehicle treated mice (HeLa cells xenograft): smaller than those of vehicle treated mice
effective dosage for mouse (HeLa cells xenograft; based on 12 μg given to 20 g mouse): 0.6 mg/kg
tumor markers in cervical cancer xenograft mouse model (Caspase 3, LC3, SQSTM1, lysosomal cathepsins) (HeLa cells xenograft; cervical cancer xenograft mouse model): increased Casepse 3 cleavage, LC3 and SQSTM1 accumulation, and reduced expression of lysosomal cathepsins
autophagosome-lysosome fusion (colocalization of GFP-LC3 and LysoTracker Red) [2]: block autophagosome-lysosome fusion
autophagic flux and lysosomal proteolytic activity [15]: blocks both autophagic flux and lysosomal proteolytic activity
